Test system: fibulin-5 mRNA
Assay: Expression and determination of fibulin-5 mRNA in human fibroblasts by quantitative PCR
Format: cell-based
Settings: for Effect on fibulin-5 production in human fibroblasts (% of the control) Mean ± SD: 24 hours culture, relative to no-addition control; for Effect of promoting fibulin-5 production (in words): summary of Table 1
Method: Adhering cells were suspended by a trypsin-ethylenediaminetetraacetic acid (EDTA) treatment and then filtered to obtain a homogeneous cell suspension. Cells were collected by centrifugation and suspended at 0.2x10^6 cells/ml. Three ml each of the cell suspension was inoculated to a 6-well plate. After the cells adhered, the medium was replaced with a 0.25% by weight FBS-containing DMEM. After culturing at 37° C for 24 hours, the medium was replaced with 0.25% by weight FBS-containing DMEM containing either of a few dozen of pharmaceutical agents. After culturing for further 24 hours, the culture supernatant was removed, and mRNA was recovered by the ABI PRISM 6100 Nucleic Acid PrepStation Kit (Applied Biosystems). […] The primers and probes used in this Example are as follows: The determination of mRNA expression was conducted in three groups, and was expressed in percentage relative to the mean of the no-addition control group.

Compound	Effect on fibulin-5 production in human fibroblasts (% of the control) Mean ± SD (25 μg/ml (0.0025% by weight))	Effect on fibulin-5 production in human fibroblasts (% of the control) Mean ± SD (250 μg/ml (0.025% by weight))	Effect of promoting fibulin-5 production (in words)
O=C(O)[C@@H]1C[C@@H](O)CN1 [L-hydroxyproline, (2S,4R)-4-hydroxypyrrolidine-2-carboxylic acid]	110.1 ± 11.0 % of the control	147.3 ± 8.9 % of the control	significant effect of promoting fibulin-5 production
O=P(O)(O)O[C@H]1[C@H](OP(=O)(O)O)[C@@H](OP(=O)(O)O)[C@H](OP(=O)(O)O)[C@@H](OP(=O)(O)O)[C@H]1OP(=O)(O)O [phytic acid, myo-inositol hexakis- phosphate]	93.0 ± 24.4 % of the control	126.1 ± 16.4 % of the control	significant effect of promoting fibulin-5 production
